The results in this text go back to patent publication US10869871B2, “Compositions and methods of modulating short-chain dehydrogenase activity” (CASE WESTERN RESERVE UNIVERSITY, priority 2013, dated 2020).

For data set [1], the system named is bone marrow. The data set can be described thus: Homing of CFSE labeled bone marrow cells to marrow of irradiated recipient mice. Type of data set: in vivo, mouse. Particulars: for effect on SW033291 induced increase of homing: co-administered with SW033291 10 mg/kg IP. The protocol:
Drugs are administered following radiation, following the transplant, and again at 8 hours after the transplant.

Data set [2] deals with mouse bone marrow. The data set can be described thus: Hematopoietic colonies from wild-type mouse bone marrow treated ex vivo. Type of data set: cell-based. Particulars: 1 μM ex vivo on ice for 2 hours. The text has this: Treated marrow is again then plated into methylcellulose for counting of hematopoietic colonies.
The target of data set [3] is T1, recombinant 15-PGDH (Homo sapiens (Human), UniProt P15428). In words: Thermal melt shift of recombinant 15-PGDH protein (SYPRO Orange). Type of data set: binding.
Data set [4] has as its system 15-PGDH-luciferase fusion protein reporter in Vaco-9M (V9M) cell line. In words: 15-PGDH-luciferase fusion reporter induction in Vaco-9M (V9M) cells. Type of data set: cell-based. The protocol:
Some residual activity is seen for isomer B when added at 3.2 μM concentration. The small residual activity of isomer A may be due to possible 3% contamination with some residual isomer B.

Data set [5] addresses T1, recombinant 15-PGDH. In words: Inhibition of enzymatic activity of recombinant 15-PGDH in an in vitro assay. Particulars: FIG. 97. It counts as biochemical.
Data set [6] has as its system 15-PGDH protein. The data set can be described thus: Western blot of 15-PGDH protein levels in treated cell lines. Particulars: […] compound for 48 hours. It counts as cell-based. A general note: A western blot detects proteins with antibodies after separation by electrophoresis.
The subject of data set [7] is 15-PGDH-luciferase fusion reporter in V9m, LS174T and V503 colon cancer cell lines. The data set can be described thus: 15-PGDH-luciferase fusion reporter induction in colon cancer cell lines. Type of data set: cell-based. Particulars: for luciferase activity of 15-PGDH luciferase fusion cells: V9m, LS174T, V503, relative to DMSO.
The subject of data set [8] is A549 cells. The data set can be described thus: PGE2 levels in medium of IL1-beta stimulated A549 cells. Type of data set: cell-based.
Data set [9] deals with cell culture. In words: Toxicity: concentration needed to decrease cell numbers in a cell culture assay. Type of data set: cell-based. The procedure: Time to inhibition refers to the time needed to inhibit the generation of NADH by 15-PGDH from the moment with drug is added into the reaction mix. Delta Tm refers to the shift in melting temperature of recombinant 15-PGDH in the presence of drug (with cofactor NADH also present). Concentration of Full Cell Line Reporter Induction refers to the concentration of drug that needs to be added to reporter cell line to achieve maximal induction of the 15-PGDH-luciferase gene fusion reporter cassette, as measured by luciferase assays. Hepatocyte stability refers to the half-life of compound in the presence of hepatocytes in culture. Toxicity refers to the concentration of compound needed to decrease cell numbers in a cell culture assay.

Data set [10] in a line: Chemical stability in aqueous solutions. Type of data set: physicochemical. Particulars: over broad pH range.
The test system of data set [11] is cell lines. The data set can be described thus: PGE2 production by cell lines. It counts as cell-based. Particulars: read-out: EC50 for increase of PGE2 production by cell lines.
The nature of data set [12]: Stability when incubated with liver extracts. It counts as in vitro ADME. Particulars: incubated with mouse, rat and human liver extracts.
A short description of data set [13]: Immediate toxicity after IP injection into mice. Type of data set: in vivo. Particulars: injected IP into mice at 50 mg/kg body weight.
Data set [14] has as its system PGE2 in colon, bone marrow, liver, lung. In words: PGE2 in mouse tissues after IP injection. It counts as in vivo.

T1 sequence (P15428 whole entry, the tested form may be a part): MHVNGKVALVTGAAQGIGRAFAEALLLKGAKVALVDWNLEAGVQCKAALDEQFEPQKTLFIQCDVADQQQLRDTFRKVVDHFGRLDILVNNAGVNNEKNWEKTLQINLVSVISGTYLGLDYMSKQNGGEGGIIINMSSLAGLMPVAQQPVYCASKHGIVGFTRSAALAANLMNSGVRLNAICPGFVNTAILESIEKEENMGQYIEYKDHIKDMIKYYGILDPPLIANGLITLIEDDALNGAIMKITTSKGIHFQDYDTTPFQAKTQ

Consider `CCCCc1nn(-c2ccccc2C(F)(F)F)c(=O)n1Cc1ccc(-c2ccccc2S(=O)(=O)NC(=O)c2sccc2C)cc1` [L-161,982], for which, in [1], the “effect on SW033291 induced increase of homing” value is given as “near completely blocked”.

For `COc1ccc2cc(OCC3(C(=O)O)CN(C(=O)c4ccc(F)cc4)C3)ccc2c1` [PF-04418948], the “effect on SW033291 induced increase of homing” value in data set [1] is recorded as “partially blocked”.

Consider `CCCCC[C@H](O)/C=C/[C@H]1[C@H](O)CC(=O)[C@@H]1C/C=C\CCCC(=O)O` [PGE2, prostaglandin E2], for which, in [2], the “increase in number of bone marrow derived colonies relative to SW033291” value was “lesser increase”.

In the case of `CCCC[S@](C)(O)c1sc2nc(-c3cccs3)cc(-c3ccccc3)c2c1N` [SW033291 isomer B], the “melting temperature of 15-PGDH” value in [3] (Differential Scanning Fluorimetry, DMSO control 50.5° C.) amounted to 68 °C. Besides, the “concentration giving full reporter activity” value in data set [4] was 0.1 µM. Also, in [5], the “IC50 lower than the parent racemic mixture” value amounted to 40%.

For `COc1ccc(OC)c(N(CC(=O)Nc2cccnc2)S(=O)(=O)c2ccccc2)c1` [SW054384], in data set [3] (10 μM and 100 μM cofactor NAD or NADH), the “direct binding to 15-PGDH by melting temperature shift” value was “cannot be demonstrated to bind 15-PGDH”. Moreover, the “levels of 15-PGDH protein (western blot)” value in data set [6] is “increase levels of 15-PGDH protein”. Besides, the “luciferase activity of 15-PGDH luciferase fusion cells” value in data set [7] was “increase luciferase activity”.

With `O=C(c1ccc2nc(-c3ccccc3)c(-c3ccccc3)nc2c1)N1CCCCC1` [SW145753], the “levels of 15-PGDH protein (western blot)” value in [6] is “increase levels of 15-PGDH protein”. Besides, the “luciferase activity of 15-PGDH luciferase fusion cells” value in data set [7] was “increase luciferase activity”. Also, in data set [8] (IL1-beta 23 hours, compound added for last 5 hours), the “PGE2 level in medium, reflecting 15-PGDH activity” value is on record as “clear inhibition of 15-PGDH activity”.

On to `CCCC[S+]([O-])c1sc2nc(-c3cccs3)ccc2c1N` (stereo not shown) [SW206980], for which, in [9], the Toxicity is above 7.5 µM. Moreover, the “highest PGE2 level achieved in medium” value in data set [8] (IL-1β 16 h, compound 8 h) worked out at 2500 pg/mL.

`CCCC[S+]([O-])c1sc2nc(-c3nccs3)ccc2c1N` (stereo not shown) [SW206992] gave a Toxicity in data set [9] above 7.5 µM. The “Concentration for Full Cell Line Reporter Induction” value in [7] (concentration to achieve maximal induction of 15-PGDH-luciferase reporter) was above 1 µM. In [8] (IL-1β 16 h, compound 8 h), the “concentration at which maximal PGE2 effect attained” value was determined as 2.5 µM and the “highest PGE2 level achieved in medium” value amounted to 2100 pg/mL.

`CCCC[S+]([O-])c1sc2nc(-c3nccs3)cc(-c3cnc(C)n3C)c2c1N` (stereo not shown) [SW209415, 2-(butylsulfinyl)-4-(1,2-dimethyl-1H-imidazol-5-yl)-6-(thiazol-2-yl)thieno[2,3-b]pyridin-3-amine]: the “increase of homed cells in recipient mouse bone marrow” value in data set [1] (10 mg/kg IP, FACS 16 hours post-transplant) is “approximately 2.5 fold”.

Turning to `CCCCC(C)(C)[C@H](O)/C=C/[C@H]1[C@H](O)CC(=O)[C@@H]1C/C=C\CCCC(=O)O` [dmPGE2, 16,16-dimethyl PGE2], the “increase in number of bone marrow derived colonies relative to SW033291” value in data set [2] is given as “slightly greater increase”.

For `CCCC[S+]([O-])c1sc2nc(-c3nccs3)cc(-c3cnc(C)n3C)c2c1N` (stereo not shown) [formula (XIII)], the “chemical stability in aqueous solutions” value in data set [10] is on record as “chemically stable in aqueous solutions over broad pH range”. In addition, the 50% effective concentration (EC50) in [11] is around 20 nM. The “chemical stability with liver extracts” value in data set [12] was “chemically stable when incubated with mouse, rat and human liver extracts”. The “homing of hematopoietic stem cells following bone marrow transplantation” value in data set [1] (mouse, 10 mg/kg body weight) is on record as “increases homing of hematopoietic stem cells”. In addition, the “immediate toxicity over 24 hours” value in [13] is on record as “no immediate toxicity”. Also, in data set [14] (IP dose of 10 mg/kg body weight), the “PGE2 levels in colon, lung, liver and bone marrow” value is listed as “elevates PGE2 levels”.

Regarding `COc1ccc2c(c1)c(CC(=O)O)c(C)n2C(=O)c1ccc(Cl)cc1` [indomethacin], in data set [1], the “effect on SW033291 induced increase of homing” value is “near completely blocked”.

(+) SW209415: the “peak PGE2 levels in lung, liver, colon and bone marrow” value in data set [14] (IP 0.5, 1.5 or 5 mg/kg, peak at 3 hours) is “approximately double those of vehicle control”.

In general, EC50 refers to the concentration that produces a half-maximal response.
